These compounds were tested on Trypanosoma cruzi (assay: Antitrypanosomal activity against Trypanosoma cruzi Tulahuen 2 assessed as inhibition of growth of epimastigotes at 25 uM after 5 days by MTT assay relative to control). Settings: Tulahuen 2, 120 h, read-out: GI.
Type: functional
In the case of `COC(=O)CSc1c(S(=O)(=O)c2ccccc2)no[n+]1[O-]`, the inhibition of growth at 25 µM is reported as 22%. `Cc1c(CNC(c2c[nH]cn2)C2CCNCC2)no[n+]1[O-]` (stereo not given) showed an inhibition of growth at 25 µM of 0%. Work on `NC(=O)c1nonc1CN1CCCCC1` yielded an inhibition of growth at 25 µM of 3%. `[O-][n+]1onc(CO)c1/C=N/O` gave an inhibition of growth at 25 µM of 2%. `Cc1c(-c2ccc(C(=O)O)cc2)no[n+]1[O-]` showed an inhibition of growth at 25 µM of 34%. With `COC(=O)CSc1no[n+]([O-])c1-c1ccccc1` the inhibition of growth at 25 µM was 15%. For `O=S(=O)(c1ccccc1)c1nonc1-c1c[nH]cn1`, the inhibition of growth at 25 µM was 12%. For `CN(C)CCCOc1nonc1S(=O)(=O)c1ccccc1`, the inhibition of growth at 25 µM was 15%. In the case of `Nc1nonc1-c1ccccc1`, the inhibition of growth at 25 µM is reported as 45%. With `NC(=O)c1nonc1CO` the inhibition of growth at 25 µM was 0%. Work on `Cc1nonc1CNCCn1c([N+](=O)[O-])cnc1C` yielded an inhibition of growth at 25 µM of 18%. With `Cc1nonc1-c1nc2ccccc2s1` the inhibition of growth at 25 µM was 22%. Compound `Cc1c(CN(C)C)no[n+]1[O-]` has an inhibition of growth at 25 µM of 0%. For `N#Cc1c(CN2CCC(Cc3c[nH]cn3)CC2)no[n+]1[O-]`, the inhibition of growth at 25 µM was 9%. Work on `CN(C)CCCOc1no[n+]([O-])c1-c1ccccc1` yielded an inhibition of growth at 25 µM of 0%. For `NC(=O)c1nonc1CN1CCC(Cc2c[nH]cn2)CC1`, the inhibition of growth at 25 µM was 0%. `Cc1nonc1C(=O)NNC(N)=S` showed an inhibition of growth at 25 µM of 16%. In the case of `CCOCC.NC(=O)c1nonc1CNC(c1c[nH]cn1)C1CCNCC1` (stereo not given), the inhibition of growth at 25 µM is reported as 0%. With `N#Cc1nonc1CN1CCC(Cc2c[nH]cn2)CC1` the inhibition of growth at 25 µM was 0%. With `Cc1ncc([N+](=O)[O-])n1CCNCc1nonc1C(N)=O` the inhibition of growth at 25 µM was 14%. In the case of `O=C(O)c1ccc(OCC(CO[N+](=O)[O-])O[N+](=O)[O-])cc1` (stereo not given), the inhibition of growth at 25 µM is reported as 0%. `c1ccc(-c2nonc2SC2CCNCC2)cc1` gave an inhibition of growth at 25 µM of 34%. `CN(C)Cc1no[n+]([O-])c1C(N)=O` was tested, and the inhibition of growth at 25 µM was 11%. Compound `Cc1nonc1-c1nc2ccccc2o1` has an inhibition of growth at 25 µM of 15%. For `CN(C)Cc1no[n+]([O-])c1C#N`, the inhibition of growth at 25 µM was 5%. Work on `NC(=O)c1c(-c2ccccc2)no[n+]1[O-]` yielded an inhibition of growth at 25 µM of 35%. Work on `Cc1no[n+]([O-])c1-c1nc(S)n[nH]1` yielded an inhibition of growth at 25 µM of 40%. `[O-][n+]1onc(SC2CCNCC2)c1-c1ccccc1` was tested, and the inhibition of growth at 25 µM was 32%. In the case of `O=Cc1ccc(OCC(CO[N+](=O)[O-])O[N+](=O)[O-])cc1` (stereo not given), the inhibition of growth at 25 µM is reported as 1%. `Cc1ncc([N+](=O)[O-])n1CCNCc1no[n+]([O-])c1C#N` showed an inhibition of growth at 25 µM of 5%. `CCOc1nonc1S(=O)(=O)c1ccccc1` was tested, and the inhibition of growth at 25 µM was 25%. `N#Cc1c(CNC(c2c[nH]cn2)C2CCNCC2)no[n+]1[O-]` (stereo not given) showed an inhibition of growth at 25 µM of 7%. Work on `CCOc1nonc1-c1ccccc1` yielded an inhibition of growth at 25 µM of 35%. `Cc1nonc1-c1ccc(C(=O)O)cc1` gave an inhibition of growth at 25 µM of 32%. Compound `NC(=O)c1no[n+]([O-])c1-c1ccccc1` has an inhibition of growth at 25 µM of 10%. For `O=C(O)c1ccc(CC(CO[N+](=O)[O-])O[N+](=O)[O-])cc1` (stereo not given), the inhibition of growth at 25 µM was 0%. In the case of `CCNCCCO[N+](=O)[O-]`, the inhibition of growth at 25 µM is reported as 0%. `Nc1no[n+]([O-])c1C(=O)N1CCCCC1` showed an inhibition of growth at 25 µM of 17%. In the case of `Cc1nonc1CN1CCC(Cc2c[nH]cn2)CC1`, the inhibition of growth at 25 µM is reported as 21%. `CN(C)Cc1nonc1C(N)=O` showed an inhibition of growth at 25 µM of 0%. `O=C(O)COc1no[n+]([O-])c1S(=O)(=O)c1ccccc1` showed an inhibition of growth at 25 µM of 35%. `Cc1no[n+]([O-])c1/C=N/O` was tested, and the inhibition of growth at 25 µM was 17%. Work on `Nc1c(-c2ccccc2)no[n+]1[O-]` yielded an inhibition of growth at 25 µM of 39%. With `Cc1ncc([N+](=O)[O-])n1CCNCc1no[n+]([O-])c1C(N)=O` the inhibition of growth at 25 µM was 10%. For `NC(=O)c1c(CO)no[n+]1[O-]`, the inhibition of growth at 25 µM was 0%. `Cc1c(-c2nc(S)n[nH]2)no[n+]1[O-]` gave an inhibition of growth at 25 µM of 29%. `N#Cc1no[n+]([O-])c1-c1ccccc1` showed an inhibition of growth at 25 µM of 15%. With `Cc1nonc1-c1nc2ccccc2[nH]1` the inhibition of growth at 25 µM was 20%. With `O=S(=O)(CCO)c1nonc1-c1ccccc1` the inhibition of growth at 25 µM was 17%. For `O=Cc1ccc(CC(CO[N+](=O)[O-])O[N+](=O)[O-])cc1` (stereo not given), the inhibition of growth at 25 µM was 0%.

Reference: ChEMBL document CHEMBL1140032, “Furoxan-, alkylnitrate-derivatives and related compounds as anti-trypanosomatid agents: mechanism of action studies” (2008)
